Among the data in PubChem BioAssay AID686957 (The Scripps Research Institute Molecular Screening Center, 2013) are IC50 values, retold here.

For this assay, the target named is T-cell receptor (TCR)-CD3 interaction, human (TCR alpha chain TRAV4). Put plainly: potency of TCR-CD3 interaction inhibitors, dose response, biochemical, fluorescence, TAMRA-labeled TCR probe (AID 686957). Conditions: TCR-CD3 binding.

pIC50: −log10 of the molar value. Active and inactive are the calls of the source. No rule for the calls is given here. Bounds are passed on as bounds.

On to `CC(C)(C)c1ccc(C(=O)NCC(=O)NNC(=O)c2ccccc2O)cc1`, for which the IC50 was > 94.1 µM (inactive).

Turning to `COC(=O)Cn1c(=NC(=O)c2cc(-c3cccs3)nc3ccccc23)sc2cc(S(N)(=O)=O)ccc21`, the IC50 is > 10.5 µM (inactive).

`Cc1ccc2nc(-c3ccc(O)c(O)c3)cn2c1`: the IC50 was > 94.1 µM (inactive).

In the case of `CNC(=S)NNC(=O)c1cccn(Cc2ccc(Cl)cc2Cl)c1=O`, the IC50 is > 94.1 µM (inactive).

Turning to `O=C(CSc1nc2ccccc2s1)N/N=C/c1cc([N+](=O)[O-])ccc1O`, the IC50 was > 94.1 µM (inactive).

`CCn1c(C)nc2cc(C(=O)NNC(=S)NC(=O)c3ccccc3)ccc21`: the IC50 was > 94.1 µM (inactive).

With `O=C(CNC(=O)c1ccccc1F)NNC(=O)c1ccccc1O`, the IC50 is > 94.1 µM (inactive).

On to `Cc1cccc(-n2c(O)c(/C=N/NC(=O)c3ccccc3Cl)c3ccccc3c2=O)n1`, for which the IC50 is > 94.1 µM (inactive).

With `O=C(N/N=C/c1c(O)n(CCc2ccccc2)c(=O)[nH]c1=O)c1ccccc1O`, the IC50 was > 94 µM (inactive).

In the case of `O=c1cc(-c2ccc(O)c(O)c2)oc2ccc3ccccc3c12`, the IC50 is > 94.2 µM (inactive).

`COc1ccc(/C=C2\SC(=O)N(CC(=O)NNC(=O)c3ccccc3O)C2=O)cc1OC`: the IC50 was > 94.1 µM (inactive).

Take `COc1cc(Br)cc2cc(C(=O)N3CCN(C(=O)c4ccco4)CC3)c(=O)oc12`: the IC50 was > 94.1 µM (inactive).

`CC1(C)CC2CC(C)(CN2S(=O)(=O)c2ccc(C(=O)Nc3cccc(S(=O)(=O)N4CCOCC4)c3)cc2)C1` (stereo not drawn): the IC50 entry is “inactive”.

Take `COc1ccc(C(=O)Nc2nnc(CC(=O)N/N=C/c3ccc(O)cc3O)s2)cc1`: the IC50 was > 94.1 µM (inactive).

For `O=C(NNC(=O)c1ccc2ccccc2c1O)Nc1ccc(F)cc1`, the IC50 was > 94.1 µM (inactive).

With `CC(C)C(=O)Nc1ccc(C(=O)NNC(=S)NC(=O)c2ccco2)cc1`, the IC50 is > 94.1 µM (inactive).

For the compound `Cc1ccc(S(=O)(=O)N2CCC(C(=O)NNC(=O)c3ccccc3O)CC2)cc1`, the IC50 was > 94.1 µM (inactive).

Regarding `COc1cccc(C(=O)NNC(=O)c2ccc3ccccc3c2O)c1`, the IC50 is > 94.1 µM (inactive).

Consider `c1coc(-c2ccc3nncn3c2)c1`, for which the IC50 result was “inactive”.

Regarding `COc1ccc(C)cc1NC(=O)NNC(=O)c1cc2ccccc2cc1O`, the IC50 is > 94.1 µM (inactive).

Regarding `O=C(O)c1c[nH]c2c([N+](=O)[O-])cccc2c1=O`, the IC50 was > 31.3 µM (inactive).

Regarding `CNC(=S)NNC(=O)c1cccn(Cc2cccc(C(F)(F)F)c2)c1=O`, the IC50 was > 94.1 µM (inactive).

`O=C(N/N=C/c1c(O)n(Cc2ccco2)c(=O)[nH]c1=O)c1ccccc1O`: the IC50 is > 94 µM (inactive).

On to `COC(=O)Nc1ccc(S(=O)(=O)NNC(=O)c2c(O)c3ccccc3n(C)c2=O)cc1`, for which the IC50 is > 94.1 µM (inactive).

Consider `O=C(CSc1nc2ccccc2c(=O)n1-c1ccc(F)c(Cl)c1)Nc1cccc(S(=O)(=O)N2CCOCC2)c1`, for which the IC50 was > 10.5 µM (inactive).

With `Cn1c(=O)c(C(=O)NNC(=O)c2ccccc2F)c(O)c2ccccc21`, the IC50 is > 94.1 µM (inactive).

As for `O=C(N/N=C/c1cccnc1)c1cc(O)c(O)c(O)c1`, the IC50 is > 94 µM (inactive).

In the case of `O=[N+]([O-])c1cc(Cl)cc(/C=N/NC(=S)Nc2ccc(S(=O)(=O)N3CCOCC3)cc2)c1O`, the IC50 was > 94.1 µM (inactive).

For `O=C(CCNC(=O)c1ccc(Br)cc1)NNC(=O)c1ccccc1O`, the IC50 is > 94.1 µM (inactive).

Consider `NS(=O)(=O)c1ccc(NC(=O)c2cccc(N3C(=O)c4ccccc4C3=O)c2)cc1`, for which the IC50 was > 94.1 µM (inactive).

Consider `CCC1=NN(C(=O)c2cccc([N+](=O)[O-])c2)C(O)(c2ccc(C)cc2)C1` (stereo not drawn), for which the IC50 was > 94.1 µM (inactive).

With `CCOC(=O)C1=C(CC)Nc2ccccc2N=C1NC(=O)Nc1ccc(Cl)c(Cl)c1`, the IC50 entry was “inactive”.

Regarding `Cc1nc(S/C(=C\c2ccc(-c3ccc(C(=O)O)c(Cl)c3)o2)C(=O)O)n[nH]1`, the IC50 is > 94.1 µM (inactive).

Regarding `CC(=O)c1cccc(NC(=O)C(OC(=O)c2cccc(S(=O)(=O)N(C)c3ccccc3)c2)c2ccccc2)c1` (stereo not drawn), the IC50 result was “inactive”.

`CCC(=O)Nc1ccc2nc3c(=O)[nH]c(=S)[nH]c3nc2c1`: the IC50 is > 94.1 µM (inactive).

As for `COc1ccc(/C=N/NC(=O)c2cc(O)c(O)c(O)c2)cc1Cn1cc([N+](=O)[O-])cn1`, the pIC50 was 5.42.

As to `COc1ccc(-c2cnnn2-c2ccc(NC(=O)c3ccc(S(=O)(=O)N4CCCCC4)cc3)cc2)cc1OC`, the IC50 result was “inactive”.

`CCOc1ccc(NC(=O)NNC(=O)c2ccc3ccccc3c2O)cc1`: the IC50 was > 94.1 µM (inactive).

Consider `Oc1ccc(/C=N/Nc2ncnc3c2ncn3Cc2ccccc2)cc1O`, for which the IC50 was > 94.1 µM (inactive).

For the compound `Cn1c(O)c(/C=N/NC(=O)c2cc3ccccc3cc2O)c2ccccc21`, the IC50 is > 94.1 µM (inactive).

Turning to `O=C(N/N=C/c1cc([N+](=O)[O-])ccc1O)/C(=C\c1cccs1)NC(=O)c1ccccc1`, the IC50 is > 94.1 µM (inactive).

On to `O=C(NNC(=O)c1ccccc1F)c1cccc(-n2cccc2)c1`, for which the IC50 is > 94 µM (inactive).

For the compound `COc1cc(OC)cc(C(=O)N/N=C/c2ccc(OC)c(COc3ccc4ccccc4c3)c2)c1`, the IC50 was > 94.1 µM (inactive).

On to `CN(CCC#N)C(=O)COC(=O)c1c2c(nc3ccccc13)/C(=C\c1ccco1)CC2`, for which the IC50 was > 94.1 µM (inactive).

For the compound `Cc1ccc(OCC(=O)c2c(N)n(C)c(=O)n(C)c2=O)c([N+](=O)[O-])n1`, the IC50 entry is “inactive”.

As to `CC1CCCC(C)N1/N=C/c1ccc(O)c(O)c1` (stereo not drawn), the IC50 is > 94.1 µM (inactive).

In the case of `CCn1c(SCC(=O)c2ccc(O)c(O)c2)nnc1-c1ccccc1OC`, the IC50 is > 94.1 µM (inactive).

Consider `O=C(NNC(=O)c1ccccc1O)c1ccc(-c2ccc([N+](=O)[O-])cc2)o1`, for which the IC50 is > 94.1 µM (inactive).

On to `C/C(=N\NC(=O)c1ccc(-c2ccccc2)cc1)C1C(=O)c2ccccc2C1=O`, for which the IC50 was > 94.1 µM (inactive).

Regarding `Cc1nc(S/C(=C/c2ccc(OCc3ccc(C(=O)O)cc3)cc2)C(=O)O)n[nH]1`, the IC50 is > 94.1 µM (inactive).

For the compound `CNC(=S)NNC(=O)c1cccn(Cc2cccc(Cl)c2)c1=O`, the IC50 was > 94.1 µM (inactive).

In the case of `O=C(CCCN1C(=O)/C(=C/c2cccs2)SC1=S)NNC(=O)c1ccccc1O`, the IC50 is > 94.1 µM (inactive).

Consider `COc1ccccc1C(=O)NNC(=O)c1ccc(NC(=O)CC(C)C)cc1`, for which the IC50 was > 94.1 µM (inactive).

In the case of `Cc1noc(C)c1COc1ccc(C(=O)NNC(=O)c2ccccc2O)cc1`, the IC50 was > 94.1 µM (inactive).

As to `O=C(N/N=C/c1ccoc1)c1cc(O)cc(O)c1`, the IC50 is > 94 µM (inactive).

Regarding `COc1cc([N+](=O)[O-])cc(/C=N/NC(=O)c2cc(C)nc3ccccc23)c1O`, the IC50 was > 94.1 µM (inactive).

`Cc1cc([N+](=O)[O-])cc(/C=N\NC(=O)C2COc3ccccc3O2)c1O` (stereo not drawn): the IC50 was > 94.2 µM (inactive).

With `Cc1onc(-c2ccccc2)c1C(=O)NN=Cc1cc(Cl)cc(Cl)c1O`, the IC50 is > 94 µM (inactive).

A word on the IC50: it is the point on the concentration scale where inhibition reaches its midpoint. As a reminder, the pIC50 is −log10 of the IC50, conventionally taken in molar units.
